Measurements from paper PMC6379104 (Clinical pharmacology and therapeutics, 2018).
“And” between values parts separate entries of the source, which are not always exact repeats. Equal values may be shown once. Read-outs that look alike come from different tables or passages of the source. Blank lines part the entries; values can stand above or below the compound they belong to.

Tests used:
[1] = Population pharmacokinetic model of plasma disulfiram and four metabolites
clinical = settings: human, in vivo
plasma HIV RNA [2] = settings: three consecutive days of DSF; cited from earlier work
cell-associated HIV DNA = settings: three consecutive days of DSF; cited from earlier work
[3] = tested on: cell-associated unspliced (CA-US) HIV RNA; settings: three consecutive days of DSF at all doses (500, 1000, 2000 mg); cited from earlier work
[4] = tested on: latent HIV in Bcl-2-transduced primary CD4+ T cells; settings: cited from earlier work
plasma HIV RNA [5] = assay type: in vivo, HIV-1
plasma HIV RNA [6] = settings: DSF 500 mg for 14 days; cited from earlier work
[7] = in humans; cited from earlier work
[8] = tested on: cell-associated unspliced (CA-US) HIV RNA; assay type: in vivo, HIV-1
plasma HIV RNA [9] = settings: following administration of vorinostat; cited from earlier work
CA-US HIV RNA = settings: following administration of vorinostat; cited from earlier work
[10] = final PK model, estimate (RSE %)
[11] = model estimate at AUC0–72 of 2270 mg*h/L (500 mg dose group median)

Structure (SMILES): CCN(CC)C(=S)SSC(=S)N(CC)CC [DSF, Disulfiram]
time by which drug was completely eliminated ([1]; 3 consecutive daily doses): ≤ 72 h | BV (%) in CL/F (between-subject variability) [1, 10]: 36% and 36 (14) % | V (volume of distribution) [1, 10]: 1.29 (9.1) L | Vd ([1]; human, plasma, oral, V (volume of distribution), final PK model, estimate (RSE %)): 1.3 L | Km (clinical): 0.217 µg/mL | change in plasma HIV RNA (plasma HIV RNA [2]): increased, but only at day 31 and only in participants receiving the highest dose (2000 mg) | change in CA-DNA (cell-associated HIV DNA): no significant differences | change in CA-US RNA [3]: statistically significant dose-dependent increases | activation of latent HIV in vitro [4]: reactivated latent HIV | median change in plasma HIV RNA (plasma HIV RNA [5]; by day 31, 2000 mg group): 1.17 copies/mL | median change in plasma HIV RNA (plasma HIV RNA [5]; during the treatment dosing period, 500 mg group): -0.22 copies/mL | exposure-response between AUC0–72 and plasma HIV RNA (plasma HIV RNA [5]; negative binomial regression models): a statistically significant exposure-response was not observed | change in plasma HIV RNA (plasma HIV RNA [6]): transient but non-statistically significant increases | estimated half-life [7]: about 7 hours | AUC50 ([8]; exposure-response of AUC0–72 on CA-US HIV RNA): 1600 µg·h/L | Emax ([8]; increase in CA-US HIV RNA): 78% | Emax (fraction increase) ([8]; increase in CA-US HIV-1 RNA, estimate (RSE %)): 78 (13.6) | potential participants achieving >90% of Emax [8, 11]: over 70% | potential participants achieving less than a third of Emax [8, 11]: 15% | potential participants achieving >98% of Emax ([8]; model estimate at AUC0–72 of 3883 mg*h/L (lowest in 1000 mg dose group)): 95% | exposure-response relationship of AUC0–72 on CA-US RNA ([8]; negative binomial PK/PD models, all three baseline values): statistically significant exposure-response relationship

Structure (SMILES): CCN(CC)C(=S)S [M1, N,N-diethyldithiocarbamate]
Km (Michaelis-Menten constant, concentration at which elimination is half maximal) [1, 10]: 480 (6.2) ng/mL | V (volume of distribution) [1, 10]: 0.0906 (16.6) L | activation of latent HIV in vitro [4]: reactivated latent HIV

Structure (SMILES): CCN(CC)C(=S)SC [M2, diethyldithiocarbamate-methyl ester]
Q (flow from central compartment to periphery) [1, 10]: 0.0776 (14.0) | V (volume of distribution) [1, 10]: 0.00404 (8.0) L | Vperiph (calculated peripheral volume) [1, 10]: 28.9 (17.3) L | activation of latent HIV in vitro [4]: but not M2 (DDTC-Me), reactivated latent HIV

V (volume of distribution) [1, 10]: 0.0647 (15.6) L
Structure (SMILES): CCN(CC)C(=O)[S+](C)[O-] (stereo not drawn) [M3, S-methyl-N,N-diethylthiolcarbamate sulfoxide]

Structure (SMILES): CCN(CC)C(=O)SC[C@H](NC(=O)CC[C@H](N)C(=O)O)C(=O)NCC(=O)O [M4, carbamathione]
Km (Michaelis-Menten constant, concentration at which elimination is half maximal) [1, 10]: 543 (4.3) ng/mL | V (volume of distribution) [1, 10]: 0.581 (10.3) L

Structure (SMILES): O=C(CCCCCCC(=O)Nc1ccccc1)NO [vorinostat]
change in plasma HIV RNA (plasma HIV RNA [9]): a significant change in plasma HIV RNA was not observed | change in CA-US HIV RNA (CA-US HIV RNA): significant increases
